This note sets out measurements from ChEMBL document CHEMBL4261544, “Structure-metabolism-relationships in the microsomal clearance of piperazin-1-ylpyridazines” (Medchemcomm, 2017).

A short description of data set [1]: Half life in mouse liver microsomes at 10 uM in presence of NADPH by LC-MS/MS analysis. Type of data set: ADME, microsome. Particulars: for half-life at 10 µM: liver microsomes.
A short description of data set [2]: Half life in human liver microsomes at 10 uM in presence of NADPH by LC-MS/MS analysis. In kind it is ADME, microsome. Particulars: for half-life at 10 µM: liver microsomes. (Liver microsomes are a subcellular fraction often used to study metabolism.)
Data set [3] in a line: Extraction ratio in mouse liver microsomes at 10 uM in presence of NADPH by LC-MS/MS analysis. As to conditions: read-out: ERH. Type of data set: ADME, microsome.
Data set [4] is described as follows: Extraction ratio in human liver microsomes at 10 uM in presence of NADPH by LC-MS/MS analysis. Type of data set: ADME, microsome. Particulars: read-out: ERH.
Data set [5] can be described thus: Aqueous solubility in pH 7.4 PBS buffer. In kind it is physicochemical.
A short description of data set [6]: Drug level in mouse liver microsomes treated with N-benzyl-6-(4-(o-tolylsulfonyl)piperazin-1-yl)pyridazine-3-carboxamide at 10 uM in presence of NADPH after 60 mins by LC-MS/MS analysis. Type of data set: ADME, microsome. As to conditions: 1 h.
Data set [7] is described as follows: Drug level in human liver microsomes treated with N-benzyl-6-(4-(o-tolylsulfonyl)piperazin-1-yl)pyridazine-3-carboxamide at 10 uM in presence of NADPH after 60 mins by LC-MS/MS analysis. Type of data set: ADME, microsome. Particulars: 1 h.
The nature of data set [8]: Metabolic stability in mouse liver microsomes assessed as parent compound remaining at 10 uM in presence of NADPH after 60 mins by LC-MS/MS analysis. In kind it is ADME, microsome. Particulars: 1 h.
Data set [9] is described as follows: Metabolic stability in human liver microsomes assessed as parent compound remaining at 10 uM in presence of NADPH after 60 mins by LC-MS/MS analysis. Type of data set: ADME, microsome. As to conditions: 1 h.
A short description of data set [10]: Drug metabolism in human liver microsomes assessed as 6-(4-(o-tolylsulfonyl)piperazin-1-yl)pyridazine-3-carboxamide formation at 10 uM in presence of NADPH after 60 mins by LC-MS/MS analysis. In kind it is ADME, microsome. As to conditions: 1 h.
Data set [11] can be described thus: Drug metabolism in mouse liver microsomes assessed as oxidation at benzene ring A at 10 uM in presence of NADPH after 30 to 60 mins by LC-MS/MS analysis. Type of data set: ADME, microsome.
The nature of data set [12]: Drug metabolism in mouse liver microsomes assessed as oxidation at benzene ring D at 10 uM in presence of NADPH after 30 to 60 mins by LC-MS/MS analysis. In kind it is ADME, microsome.
The nature of data set [13]: Drug metabolism in mouse liver microsomes assessed as oxidation at benzene ring B at 10 uM in presence of NADPH after 30 to 60 mins by LC-MS/MS analysis. Type of data set: ADME, microsome.
The nature of data set [14]: Drug metabolism in mouse liver microsomes assessed as oxidation at benzene ring C at 10 uM in presence of NADPH after 30 to 60 mins by LC-MS/MS analysis. Type of data set: ADME, microsome.

Molecules are shown by their SMILES.

Regarding `Cc1ccccc1S(=O)(=O)N1CCN(c2cnc(C(=O)NCc3ccc(F)cc3)cn2)CC1`, the half-life at 10 µM in data set [1] was 3 min; in [2], 2 min. Also, the hepatic extraction ratio at 10 µM in [3] and in [4] was 0.95 throughout.

`O=C(NCc1ccccc1)c1ccc(N2CCC(S(=O)(=O)c3cccc(Cl)c3Cl)CC2)nn1`: the results for the half-life at 10 µM in data set [1] and in data set [2] were 20 min and 27 min, respectively. Further, the hepatic extraction ratio at 10 µM in data set [3] turned out to be 0.75; in data set [4], 0.61.

In the case of `N#Cc1ncccc1S(=O)(=O)N1CCN(c2ccc(C(=O)NCc3ccc(F)cc3)[n+]([O-])n2)CC1`, the half-life at 10 µM in [1] was 16 min.

Regarding `O=C(NCc1ccc(F)cc1)c1ccc(N2CC3(C2)CN(S(=O)(=O)c2cccnc2Cl)C3)nn1`, the half-life at 10 µM in data set [1] was found to be 113 min; in data set [2], 0.35 min. The hepatic extraction ratio at 10 µM in data set [4] is 0.29.

Take `Cc1ccc(F)cc1S(=O)(=O)N1CCN(c2ccc(C(=O)NCc3ccc(F)cc3)nn2)CC1`: in data set [5], the solubility result was “Insoluble”. The half-life at 10 µM amounted to 68 min in [1] and 12 min in [2]. Also, the hepatic extraction ratio at 10 µM in data set [3] was 0.47; in [4] it was 0.78.

For `Nc1ncccc1S(=O)(=O)N1CCN(c2ccc(C(=O)NCc3ccc(F)cc3)nn2)CC1`, in data set [1], the half-life at 10 µM is 19 min.

For the compound `Cc1ccccc1S(=O)(=O)N1CCN(c2ccc(C(=O)NCc3cccs3)nn2)CC1`, the figures for the half-life at 10 µM in data set [1] and in [2] were 2 min and 4 min, respectively. Also, the hepatic extraction ratio at 10 µM in data set [3] worked out at 0.97; in data set [4], 0.92.

As for `Cc1ccccc1S(=O)(=O)N1CCN(c2ccc(C(=O)NCc3cncs3)nn2)CC1`, the half-life at 10 µM in [1] is 18 min; in [2], 30 min. For the same compound, the hepatic extraction ratio at 10 µM in [3] stood at 0.77; in [4] it was 0.59.

For the compound `Cc1nc(C(F)(F)F)ccc1S(=O)(=O)N1CCN(c2ccc(C(=O)NCc3ccc(F)cc3)nn2)CC1`, the half-life at 10 µM in data set [1] turned out to be 23 min.

In the case of `Cc1ccccc1S(=O)(=O)N1CC2(CN(c3ccc(C(=O)NCc4ccc(F)cc4)nn3)C2)C1`, the half-life at 10 µM was 2 min in data set [1] and 1 min in [2]. Besides, the figures for the hepatic extraction ratio at 10 µM in [3] and in [4] were 0.98 and 0.97, respectively.

In the case of `O=C(NCc1ccc(F)cc1)c1ccc(N2CCN(S(=O)(=O)c3cccnc3N3CCOCC3)CC2)nn1`, in [1], the half-life at 10 µM is 2 min.

Consider `O=C(NCc1ccc(F)cc1)c1ccc(N2CCN(S(=O)(=O)c3cccnc3C3CC3)CC2)nn1`, for which the half-life at 10 µM in data set [1] was found to be 6 min.

On to `Cc1ccccc1S(=O)(=O)N1CCN(c2ccc(C(N)=O)nn2)CC1`, for which the Drug metabolism result in [6] and in [7] was “Metabolite_Detected” in each case.

For `O=C(NCc1ccccc1)c1ccc(N2CCN(S(=O)(=O)c3cccc(Cl)c3Cl)CC2)nn1`, the half-life at 10 µM in data set [1] turned out to be 14 min; in data set [2] it was 16 min. The results for the hepatic extraction ratio at 10 µM in data set [3] and in [4] were 0.81 and 0.73, respectively.

As for `Cc1cc(F)ccc1S(=O)(=O)N1CCN(c2ccc(C(=O)NCc3ccc(F)cc3)nn2)CC1`, the half-life at 10 µM in [1] amounted to 15 min. In addition, the hepatic extraction ratio at 10 µM in data set [3] was 0.8.

On to `Cc1ccccc1S(=O)(=O)N1CCN(c2ccc(C(=O)NCc3ccccc3)nn2)CC1`, for which the results for the Stability in [8] and in data set [9] were 42% and 62%, respectively. Besides, the Drug metabolism entry in data set [10] is recorded as “Metabolite_Notdetected”. The t1/2 was 2 min in data set [1] (microsomes, 10 µM) and 3 min in data set [2] (microsomes, 10 µM). Also, the figures for the hepatic extraction ratio at 10 µM in data set [3] and in data set [4] were 0.97 and 0.93, respectively.

In the case of `O=C(NCc1ccc(F)cc1)c1ccc(N2CCN(S(=O)(=O)c3ccc(F)cc3C(F)(F)F)CC2)nn1`, in data set [1], the half-life at 10 µM is 12 min. The Drug metabolism result in data set [11] is listed as “Metabolite_Notdetected”; in data set [12], “Metabolite_Detected”; in data set [13] it was “Metabolite_Detected”; in [14] it was “Metabolite_Detected”. Moreover, in [3], the hepatic extraction ratio at 10 µM was determined as 0.84.

With `O=C(NCc1ccccc1)c1ccc(N2CCN(S(=O)(=O)c3ccccc3Cl)CC2)nn1`, the results for the half-life at 10 µM in data set [1] and in data set [2] were 2 min and 5 min, respectively. Also, the hepatic extraction ratio at 10 µM in data set [3] amounted to 0.97; in data set [4], 0.89.

In the case of `O=C(NCc1ccc(F)cc1)c1ccc(N2CCN(S(=O)(=O)c3cccnc3O)CC2)nn1`, the half-life at 10 µM in data set [1] came out at 72 min.

For `Cc1ccccc1S(=O)(=O)N1CCN(c2ccc(C(=O)NCc3ccc(F)cc3)nn2)CC1`, the half-life at 10 µM in data set [1] was determined as 26 min; in data set [2], 34 min. Moreover, the figures for the hepatic extraction ratio at 10 µM in data set [3] and in data set [4] were 0.7 and 0.56, respectively.

With `O=C(NCc1ccc(F)cc1)c1ccc(N2CCN(S(=O)(=O)c3ccccc3C(F)(F)F)CC2)nn1`, the half-life at 10 µM in data set [1] came out at 31 min. Also, the Drug metabolism entry was “Metabolite_Notdetected” in data set [11], “Metabolite_Detected” in [12], “Metabolite_Detected” in data set [13] and “Metabolite_Detected” in data set [14]. Further, the hepatic extraction ratio at 10 µM in data set [3] is 0.66.

As to `N#Cc1ncccc1S(=O)(=O)N1CCN(c2ccc(C(=O)NCc3ccc(F)cc3)nn2)CC1`, in [1], the half-life at 10 µM was 5 min.

On to `Cc1ccccc1S(=O)(=O)N1CC=C(c2ccc(C(=O)NCc3ccc(F)cc3)nn2)CC1`, for which the results for the half-life at 10 µM in data set [1] and in [2] were 5 min and 2 min, respectively. For the same compound, the hepatic extraction ratio at 10 µM in data set [3] was found to be 0.94; in data set [4] it was 0.96.

On to `O=C(NCc1ccc(F)cc1)c1ccc(N2CCN(S(=O)(=O)c3cccnc3Cl)CC2)nn1`, for which the half-life at 10 µM in data set [1] was 13 min.

Consider `Cc1ncccc1S(=O)(=O)N1CCN(c2ccc(C(=O)NCc3ccc(F)cc3)nn2)CC1`, for which the half-life at 10 µM in data set [1] amounted to 8 min.

The term half-life denotes the time needed for the level to fall by half in the phase considered.
